In article PMC13224100, “Esterase-Responsive Mitochondria-Targeted Hydropersulfide Donors Mitigate Doxorubicin Cardiotoxicity While Preserving Anticancer Activity” (Angewandte Chemie (International ed. in English), 2025):
Marks after values point to notes of the source that are not given here.

How the values were obtained:
[1] = tested on: porcine liver esterase (PLE); assay: Quantification of RSSH release (RSS-HPE-AM yield) by HPLC; assay type: biochemical; conditions: pH 7.4 ammonium bicarbonate with DTPA, 37 °C; for RSSH yield (%) (formation of RSS-HPE-AM): HPE-IAM trapping; for RSSH yield (%) (formation of TPP-RSS-HPE-AM): trapping with 50 equiv of HPE-IAM
Description: C. Quantification of RSSH Release by HPLC Analysis […]
(PLE, 1 U/mL) in ammonium bicarbonate buffer (100 mM, pH 7.4) containing diethylenetriaminepentaacetic acid (DTPA, 100 µM) at 37 °C. At designated time points, 200 μL aliquots were withdrawn and immediately quenched by mixing with 200 μL o f i c e-cold 0.1% formic acid. Samples were analyzed by HPLC using the same method and conditions as described above. Quantification of the trapped product (RSS-HPE-AM) was carried out using a calibration curve generated in-house with authentic standards. All experiments were performed in triplicate (n = 3), and data are reported as mean ± standard deviation (SD). […]
(§1) 0.1% formic acid. Samples were analyzed by Agilent HPLC with UV detection using a C18 reverse-phase column (Phenomenex Luna C18, 4.6 × 150 mm, 5 μm) at 25 °C with a flow rate of 1.0 mL/min and an injection volume of 20 μL. The gradient elution (all solvents v/v, containing 0.1% trifluoroacetic acid) was as follows: 0–10 min, linear gradient from 90% water / 10% acetonitrile to 50% water / 50% acetonitrile; 10–18 min, to 10% water / 90% acetonitrile; 18–20 min, held at 10% water / 90% acetonitrile; 20–25 min, return to 90% water / 10% acetonitrile.
Absorbance was monitored at 275 nm. […]

[2] = Stability of RSSH precursors with glutathione by HPLC; assay type: physicochemical; conditions: GSH 500 µM (5 equiv), PBS pH 7.4, 37 °C; for half-life at 100 µM: PBS with glutathione (500 µM), pH 7.4, precursor 100 µM, read-out: decomposition half-life (t1/2) in the presence of GSH; for decomposition half-life (t1/2) in the presence of GSH / decomposition rate constant in the presence of GSH: precursor 100 µM; for decomposition rate constant in the presence of GSH: in min-1
Description: We next evaluated whether our newly developed precursors generate RSSH in the presence of thiols, which are abundant in biological systems. We examined their reactivity toward glutathione (GSH, 5 equiv) in PBS (pH 7.4, 37 °C), and precursor consumption was quantified by HPLC. […] We attribute this difference to their intrinsic reactivity. As shown previously,[23] AST donors can undergo nucleophilic attack either at the carbonyl carbon, producing the intended RSSH and a thiocarbonate byproduct (Scheme 3a, Path A), or at the disulfide bond, giving an unsymmetrical disulfide and a thiocarbonate intermediate (Scheme 3a, Path B). The higher electrophilicity of the perthiocarbonate carbonyl likely explains the faster consumption of AST derivatives. In contrast, and consistent with earlier studies,[24] APT-1 and APT-1-TPP react mainly through thiol–disulfide exchange (Scheme 3b, Path B), as attack at the perthiocarbamate carbonyl is disfavored due to its lower electrophilicity compared with the perthiocarbonate in AST donors. […]
(n = 3), and data are reported as mean ± standard deviation (SD).
Stability of RSSH Precursors with Glutathione by HPLC
as §1, with “Stock solutions of RSSH precursor (10 mM in DMSO) and GSH (20 mM in PBS, pH 7.4) were prepared immediately prior to the assay. The RSSH precursor (100 µM) was incubated with GSH (500 µM) in phosphate-buffered saline (PBS, pH 7.4) at 37 °C. At designated time points, 200 μL aliquots were withdrawn and immediately quenched by mixing with an equal volume of ice-cold 0.1% formic” for “0.1% formic”
Absorbance was monitored at 275 nm. The percentage of precursor remaining at each time point was calculated by comparing the absorbance at 275 nm to the initial value. All experiments were performed in triplicate (n = 3), and data are reported as mean ± standard deviation (SD).
Figure S19. Stability profiles of (A) AST-2, (B) APT-1, (C) AST-2-TPP, and (D) APT-1-TPP in PBS, pH 7.4 at 37 °C in the presence of GSH. Decomposition rate constant for AST-2, APT-1, AST-2-TPP, and APT-1- […]
Decomposition half-lives for AST-2, APT-1, AST-2-TPP, and APT-1-TPP are 8.6 ± 0.1 min, 39.7 ± 1.2 min, 6.3 ± 0.1 min, and 56.2 ± 4.0 min, respectively. Data are mean ± standard deviation (SD) (n = 3)
(1 picture or pasted object on this page, not shown here)

Q: Which “RSSH yield (%) (formation of RSS-HPE-AM)” value [1] does the source give for CC(=O)NC(C(=O)N(C)CCC[P+](c1ccccc1)(c1ccccc1)c1ccccc1)C(C)(C)SSC(=O)N(C)CCOC(C)=O (centres unmarked) [APT-1-TPP] here?
A: 95%

Q: What about the half-life at 100 µM [2] of the same compound?
A: 56.2 ± 4 min

Q: What about the “decomposition half-life (t1/2) in the presence of GSH” value (“decomposition half-life” below) [2] of the same compound?
A: 56 min

Q: And the “decomposition rate constant in the presence of GSH” value (shortened to “decomposition rate constant”) [2]?
A: 0.01236 ± 0.00066

Q: Which results are given for COC(=O)C(NC(C)=O)C(C)(C)SSC(=O)N(C)CCOC(C)=O (centres unmarked) [APT-1]?
A: RSSH yield (%) (formation of RSS-HPE-AM) [1]: 92%; half-life at 100 µM [2]: 39.7 ± 1.2 min; decomposition half-life (t1/2) in the presence of GSH [2]: 40 min; decomposition rate constant in the presence of GSH [2]: 0.01749 ± 0.00052

Q: For COC(=O)SSC(C)(C)C(NC(C)=O)C(=O)N(C)CCC[P+](c1ccccc1)(c1ccccc1)c1ccccc1 (centres unmarked) [AST-2-TPP], which “RSSH yield (%) (formation of TPP-RSS-HPE-AM)” value [1] is on record?
A: 91%

Q: What about the “RSSH yield (%) (formation of TPP-RSS-HPE-AM)” value ([1]; listed as AsT-2-TPP) of the same compound?
A: 91^b) %

Q: And the half-life at 100 µM [2]?
A: 6.3 ± 0.1 min

Q: What about the “decomposition half-life” value [2] of the same compound?
A: 6 min

Q: What about the “decomposition rate constant” value [2] of the same compound?
A: 0.1094 ± 0.00183

Q: With COC(=O)SSC(C)(C)C(NC(C)=O)C(=O)OC (centres unmarked) [AST-2] as the compound, how does the “RSSH yield (%) (formation of RSS-HPE-AM)” value [1] read?
A: 95%

Q: And the half-life at 100 µM [2]?
A: 8.6 ± 0.1 min

Q: What about the “decomposition half-life” value [2] of the same compound?
A: 9 min

Q: And the “decomposition rate constant” value [2]?
A: 0.08081 ± 0.00105
